Reference: ChEMBL document CHEMBL1201862, “PubChem BioAssay data set” (2004)
Active and inactive are the calls of the source.

Key:
[1] = target: CAAX prenyl protease 2 (Saccharomyces cerevisiae S288c, UniProt Q03530); assay type: biochemical
[2] = target: CAAX prenyl protease 1 (Saccharomyces cerevisiae S288c, UniProt P47154); assay: yeast CAAX protease Ste24 inhibition – biochemical, S. cerevisiae, plate reader, cherry-pick, dose response (AID 488815)
[3] = target: Trypsin (Sus scrofa, UniProt P00761); assay: trypsin protease activity blockade – biochemical, quenched peptide fluorescence, cherry-pick, selectivity assay for Rce1 protease inhibitor project, dose response (AID 488789)
Trypsin, sequence (P00761 whole entry): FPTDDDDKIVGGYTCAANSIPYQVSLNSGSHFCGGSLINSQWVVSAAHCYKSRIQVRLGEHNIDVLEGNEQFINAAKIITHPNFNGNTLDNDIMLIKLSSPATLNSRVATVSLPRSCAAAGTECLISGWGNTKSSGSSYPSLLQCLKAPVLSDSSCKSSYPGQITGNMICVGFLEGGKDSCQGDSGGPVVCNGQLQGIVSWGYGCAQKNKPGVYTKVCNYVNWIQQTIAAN

[4] = target: Dual specificity tyrosine-phosphorylation-regulated kinase 1A (Rattus norvegicus, UniProt Q63470); assay type: biochemical, Homo sapiens
[5] = target: T1, Rac GTPase-activating protein 1 (Homo sapiens, UniProt Q9H0H5); assay: blockers of MgcRacGAP-driven Rac1 GTP hydrolysis – biochemical, ADP Hunter fluorescence, primary and confirmatory, confirmation (AID 624330); assay type: functional
T1 sequence (Q9H0H5 whole entry): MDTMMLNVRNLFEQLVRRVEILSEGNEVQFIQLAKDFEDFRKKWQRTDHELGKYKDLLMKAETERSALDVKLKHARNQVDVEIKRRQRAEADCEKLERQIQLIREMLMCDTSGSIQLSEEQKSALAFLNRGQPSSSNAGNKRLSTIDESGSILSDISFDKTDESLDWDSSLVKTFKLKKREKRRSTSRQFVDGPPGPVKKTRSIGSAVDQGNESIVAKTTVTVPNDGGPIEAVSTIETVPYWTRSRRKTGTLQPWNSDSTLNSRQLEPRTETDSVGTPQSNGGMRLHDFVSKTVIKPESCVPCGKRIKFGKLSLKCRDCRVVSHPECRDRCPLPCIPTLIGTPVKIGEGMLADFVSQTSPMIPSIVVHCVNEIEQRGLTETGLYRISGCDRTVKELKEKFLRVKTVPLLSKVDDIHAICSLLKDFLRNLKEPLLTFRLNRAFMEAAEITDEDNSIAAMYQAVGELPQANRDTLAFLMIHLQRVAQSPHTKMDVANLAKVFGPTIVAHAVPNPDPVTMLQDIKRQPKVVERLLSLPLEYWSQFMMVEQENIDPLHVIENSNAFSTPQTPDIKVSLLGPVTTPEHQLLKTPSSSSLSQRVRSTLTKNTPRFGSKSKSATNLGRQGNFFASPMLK

[6] = target: Lysine-specific demethylase 4A (Homo sapiens, UniProt O75164); assay: inhibition of JMJD2A H3K9me3 demethylation – biochemical, DELFIA europium, cherry-picked samples, selectivity assay for GASC-1 inhibitor project, dose response (AID 488840)
Lysine-specific demethylase 4A, sequence (O75164 whole entry, the tested form may be a part): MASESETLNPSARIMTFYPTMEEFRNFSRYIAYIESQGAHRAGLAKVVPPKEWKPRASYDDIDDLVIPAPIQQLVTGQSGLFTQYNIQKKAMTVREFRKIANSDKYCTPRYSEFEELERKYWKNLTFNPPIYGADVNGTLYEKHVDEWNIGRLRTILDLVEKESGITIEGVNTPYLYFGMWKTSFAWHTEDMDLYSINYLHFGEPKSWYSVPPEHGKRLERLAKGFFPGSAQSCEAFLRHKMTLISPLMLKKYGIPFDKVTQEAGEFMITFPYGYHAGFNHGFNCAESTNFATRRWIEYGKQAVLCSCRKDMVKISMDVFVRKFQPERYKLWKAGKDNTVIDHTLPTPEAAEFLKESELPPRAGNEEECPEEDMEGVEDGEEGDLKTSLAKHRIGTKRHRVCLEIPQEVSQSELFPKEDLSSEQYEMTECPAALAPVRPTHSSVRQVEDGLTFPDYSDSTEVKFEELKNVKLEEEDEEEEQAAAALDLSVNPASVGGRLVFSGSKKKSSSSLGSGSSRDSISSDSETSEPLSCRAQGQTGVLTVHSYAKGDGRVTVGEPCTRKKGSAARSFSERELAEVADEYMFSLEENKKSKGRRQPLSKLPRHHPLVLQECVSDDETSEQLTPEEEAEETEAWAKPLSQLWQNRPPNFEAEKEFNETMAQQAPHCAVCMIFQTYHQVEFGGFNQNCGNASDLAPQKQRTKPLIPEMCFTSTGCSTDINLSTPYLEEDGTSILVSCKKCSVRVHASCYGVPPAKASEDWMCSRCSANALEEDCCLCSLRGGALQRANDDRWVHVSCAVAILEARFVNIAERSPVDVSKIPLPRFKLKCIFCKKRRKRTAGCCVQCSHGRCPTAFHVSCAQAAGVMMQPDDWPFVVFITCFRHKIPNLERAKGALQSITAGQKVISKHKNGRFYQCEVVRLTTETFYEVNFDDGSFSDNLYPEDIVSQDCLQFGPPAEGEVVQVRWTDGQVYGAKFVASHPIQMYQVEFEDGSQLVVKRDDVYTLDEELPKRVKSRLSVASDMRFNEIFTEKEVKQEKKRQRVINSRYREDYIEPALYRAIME

[7] = target: T2, Sentrin-specific protease 1 (Homo sapiens, UniProt Q9P0U3); assay: SENP1 catalytic domain blockers, concentration series – biochemical, kinetic FRET, dose response (AID 651697); assay type: functional; settings: read-out: IC50_Mean
T2 sequence (Q9P0U3 whole entry): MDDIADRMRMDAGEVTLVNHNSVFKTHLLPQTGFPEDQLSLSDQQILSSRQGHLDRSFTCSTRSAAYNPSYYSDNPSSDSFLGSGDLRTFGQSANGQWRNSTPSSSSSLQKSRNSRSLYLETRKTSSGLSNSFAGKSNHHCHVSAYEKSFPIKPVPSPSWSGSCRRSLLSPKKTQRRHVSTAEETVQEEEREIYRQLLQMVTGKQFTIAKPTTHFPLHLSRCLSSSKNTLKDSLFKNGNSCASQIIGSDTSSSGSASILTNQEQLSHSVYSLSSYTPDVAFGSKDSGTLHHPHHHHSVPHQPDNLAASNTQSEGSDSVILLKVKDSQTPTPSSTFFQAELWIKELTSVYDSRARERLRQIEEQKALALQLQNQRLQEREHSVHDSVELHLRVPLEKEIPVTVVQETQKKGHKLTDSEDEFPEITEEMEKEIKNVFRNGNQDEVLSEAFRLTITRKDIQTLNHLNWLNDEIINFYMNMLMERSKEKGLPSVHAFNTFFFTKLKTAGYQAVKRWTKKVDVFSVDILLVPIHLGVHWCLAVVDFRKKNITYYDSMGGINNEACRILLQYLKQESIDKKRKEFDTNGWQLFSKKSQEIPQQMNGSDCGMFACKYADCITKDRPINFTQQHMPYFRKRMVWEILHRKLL

[8] = target: Lysine-specific demethylase 4C (Homo sapiens, UniProt Q9H3R0); assay: inhibition of JMJD2C H3K9me3 demethylation – biochemical, DELFIA europium, cherry-picked samples, dose response (AID 488835); assay type: functional
Lysine-specific demethylase 4C, sequence (Q9H3R0 whole entry, the tested form may be a part): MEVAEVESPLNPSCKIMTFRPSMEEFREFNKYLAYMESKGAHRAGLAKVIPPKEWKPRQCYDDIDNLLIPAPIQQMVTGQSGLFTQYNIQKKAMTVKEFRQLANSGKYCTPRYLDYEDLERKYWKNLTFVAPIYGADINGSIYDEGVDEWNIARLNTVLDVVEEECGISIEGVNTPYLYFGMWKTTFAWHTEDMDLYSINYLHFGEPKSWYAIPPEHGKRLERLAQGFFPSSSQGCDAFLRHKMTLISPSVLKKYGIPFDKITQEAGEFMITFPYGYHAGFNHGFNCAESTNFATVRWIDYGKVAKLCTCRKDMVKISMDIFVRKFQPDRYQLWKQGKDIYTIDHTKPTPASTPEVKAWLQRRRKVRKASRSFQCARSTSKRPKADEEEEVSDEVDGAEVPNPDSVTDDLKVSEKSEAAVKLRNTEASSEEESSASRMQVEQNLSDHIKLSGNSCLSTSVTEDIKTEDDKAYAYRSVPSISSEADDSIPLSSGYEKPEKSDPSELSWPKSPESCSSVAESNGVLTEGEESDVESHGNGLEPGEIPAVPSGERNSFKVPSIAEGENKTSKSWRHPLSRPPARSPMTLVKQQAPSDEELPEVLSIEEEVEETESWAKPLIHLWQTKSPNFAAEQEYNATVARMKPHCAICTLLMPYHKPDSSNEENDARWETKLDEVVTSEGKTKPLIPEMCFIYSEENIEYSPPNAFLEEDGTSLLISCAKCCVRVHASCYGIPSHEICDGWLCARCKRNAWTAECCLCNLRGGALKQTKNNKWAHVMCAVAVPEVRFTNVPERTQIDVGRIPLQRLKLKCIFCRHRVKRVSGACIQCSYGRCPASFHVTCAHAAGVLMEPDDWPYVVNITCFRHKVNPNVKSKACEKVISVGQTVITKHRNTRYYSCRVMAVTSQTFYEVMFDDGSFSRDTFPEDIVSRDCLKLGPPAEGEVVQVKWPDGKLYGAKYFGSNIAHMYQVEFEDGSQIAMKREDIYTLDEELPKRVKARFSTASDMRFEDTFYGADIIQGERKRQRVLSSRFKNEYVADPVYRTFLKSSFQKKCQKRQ

[9] = target: T2, Sentrin-specific protease 1; assay: Dose response confirmation of small molecule inhibitors of the catalytic domain of the SUMO protease, SENP1 in a FRET assay.; assay type: functional; settings: read-out: IC50_Mean
[10] = tested on: Escherichia coli; assay: microbe, parasite or virus in culture
[11] = viability loss of HMLE_sh_eGFP cells – cell-based, luminescence, counter-screen for HMLE_sh_ECad selective toxicity project, dose response (AID 463074); assay type: functional, Homo sapiens;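 further: HMLE human mammary epithelial cells expressing control shRNA against eGFP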
[12] = viability of HCT116 lacking mutant beta-catenin – cell-based, human colon tumor, dose response (AID 1045); assay type: functional;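 further: HCT116 colon tumor cells with beta catenin knocked out; cells exposed to compound for 60 hours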
[13] = viability of PTEN-deleted HCT116 cells – cell-based, HCT116 PTEN knockout, dose response (AID 1047); assay type: functional;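 further: HCT116 colon tumor cells with PTEN knocked out; cells exposed to compound for 60 hours before readout; potency for loss of cell viability measured by luminescence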
[14] = Luminescence Cell-Based Dose Retest to Confirm Inhibitors of Cancer Stem Cells. [Related pubchem assays (depositor defined):AID2717, AID2721]; assay type: functional; settings: Homo sapiens

CAAX prenyl protease 1, sequence (P47154 whole entry): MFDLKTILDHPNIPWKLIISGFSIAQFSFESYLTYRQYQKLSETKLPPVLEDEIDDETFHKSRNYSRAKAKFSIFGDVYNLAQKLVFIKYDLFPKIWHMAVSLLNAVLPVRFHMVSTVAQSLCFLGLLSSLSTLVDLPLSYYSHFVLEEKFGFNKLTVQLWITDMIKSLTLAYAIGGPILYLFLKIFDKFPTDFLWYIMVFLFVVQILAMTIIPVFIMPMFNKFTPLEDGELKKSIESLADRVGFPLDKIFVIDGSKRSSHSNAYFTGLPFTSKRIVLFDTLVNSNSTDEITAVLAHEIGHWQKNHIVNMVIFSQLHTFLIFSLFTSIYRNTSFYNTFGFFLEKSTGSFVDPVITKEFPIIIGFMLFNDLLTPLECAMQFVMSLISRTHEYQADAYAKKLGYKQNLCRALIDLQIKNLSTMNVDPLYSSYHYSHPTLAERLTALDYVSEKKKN
CAAX prenyl protease 2, sequence (Q03530 whole entry): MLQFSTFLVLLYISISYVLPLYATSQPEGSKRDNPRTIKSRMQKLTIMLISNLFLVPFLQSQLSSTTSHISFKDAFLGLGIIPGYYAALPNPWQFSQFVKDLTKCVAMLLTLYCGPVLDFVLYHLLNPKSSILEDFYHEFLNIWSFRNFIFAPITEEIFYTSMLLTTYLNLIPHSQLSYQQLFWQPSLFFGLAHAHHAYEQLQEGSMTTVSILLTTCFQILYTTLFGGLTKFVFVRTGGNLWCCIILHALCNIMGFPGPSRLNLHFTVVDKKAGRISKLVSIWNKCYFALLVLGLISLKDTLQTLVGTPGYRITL

CCCCN1C(=O)/C(=C/Nc2cccnc2Cl)C(=O)N(CCCCl)C1=O
active: AC50 [1] 40.4 µM | AC50 [2] 7.88 µM | AC50 [3] 47.1 µM

C[C@@H]1O[C@@H](OC[C@H]2O[C@@H](Oc3cc(O)c4c(=O)cc(-c5ccc(O)c(O)c5)oc4c3)[C@H](O)[C@@H](O)[C@@H]2O)[C@H](O)[C@H](O)[C@H]1O
active: AC50 [4] 15.8 µM | IC50 [5] 42.7 µM | AC50 [6] 2.86 µM | IC50 [7] 14.7 µM | AC50 [8] 2.82 µM | IC50 [9] 6.84 µM

COc1cc(SC)ccc1C(=O)Nc1cc(C)ccn1
active: AC50 [10] 31.5 µM

Cc1nn(Cc2ccc(Cl)cc2)c(Cl)c1/C=N/NC(=O)CNc1ccccc1F
active: AC50 [11] 24.9 µM | EC50 [12] 18 µM | EC50 [13] 15.8 µM | AC50 [14] 16.2 µM
